From patent US10239881B2, “RIPK2 inhibitors and method of treating cancer with same” (University Health Network, priority 2014, dated 2019) come the findings set out here.

For data set [1], the system named is MDA-MB-231 breast cancer cells. Description: Sulforhodamine B cell growth inhibition assay. It counts as cell-based. Particulars: Homo sapiens, MDA-MB-231, 120 h; 5 days, SRB; read-out: Breast GI50 range MDA-MB-231. The method, then: (§1) Breast cancer cells (MDA-MB-231 and MDA-MB-468), colon cancer cells (HCT116 and HT-29) and ovarian cancer cells (SKOV-3 and OVCAR-3) were seeded (1000 to 4000 in 80 μL per well depending on the cell growth rate) into 96 well plates 24 hours before compound overlay. Compounds were prepared as 10 mM stock solutions in 100% DMSO which were diluted with DMEM (Dulbecco's Modified Eagle's Medium) cell growth Medium (Invitrogen, Burlington, ON, Canada) containing 10% FBS (Fetal Bovine Serum) to concentrations ranging from 50 nM to 250 μM. Aliquots (20 μL) from each concentration were overlaid to 80 μL of the pre-seeded cells in the 96 well plates to make final concentrations of 10 nM to 50 μM. The cells were cultured for 5 days before the Sulforhodamine B assay (SRB) was performed to determine the compound's cell growth inhibition activity.
(§2) The cells are fixed in situ by gently aspirating off the culture media and adding 50 μL ice cold 10% trichloroacetic acid per well and incubate at 4° C. for 30-60 min. The plates are washed with H2O five times and allowed to air dry for 5 min. Addition of 50 μL 0.4% (w/v) SRB solution in 1% (v/v) acetic acid to each well and incubation for 30 min at rt completes the staining reaction. Following staining, plates are washed four times with 1% acetic acid to remove unbound dye and then allowed to air dry for 5 min. The stain is solubilized with 100 μL of 10 mM Tris pH 10.5 per well. Absorbance is read at 570 nm. The percentage (%) of relative growth inhibition was calculated by comparing to DMSO treated only cells (100%). GI50's were determined for compounds with cytotoxic activity. The GI50 was calculated using GraphPad PRISM software (GraphPad Software, Inc., San Diego, Calif., USA). GI50 (growth inhibition) is the compound concentration that causes 50% inhibition of cell growth.
(§3) In Table 2 lists GI50 value ranges for compound examples against breast cancer cell lines (MDA-MB-231, MDA-MB-468), colon cancer cell lines (HCT116, HT-29) and ovarian cancer cell lines (OVCAR-3, SKOV-3) are given. […] The GI50 ranges are indicated as “A,” “B,” and “C,” for values less than or equal to 1 μM; those greater than 1 μM and less than or equal to 10 μM; and those greater than 10 μM, respectively.

The test system of data set [2] is MDA-MB-468 breast cancer cells. The data set can be described thus: Sulforhodamine B cell growth inhibition assay. It counts as cell-based. The conditions noted are these: Homo sapiens, MDA-MB-468, 120 h; 5 days, SRB; read-out: Breast GI50 range MDA-MB-468. Here is the method: as §1, §2, §3
The test system of data set [3] is HCT116 colon cancer cells. Description: Sulforhodamine B cell growth inhibition assay. The conditions noted are these: Homo sapiens, HCT-116, 120 h; 5 days, SRB; read-out: Colon GI50 range HCT116. It counts as cell-based. The method, then: as §1, §2, §3
In data set [4] the test system is SKOV-3 ovarian cancer cells. Description: Sulforhodamine B cell growth inhibition assay. Particulars: Homo sapiens, SK-OV-3, 120 h; 5 days, SRB; read-out: Ovarian GI50 range SKOV-3. It counts as cell-based. The method, then:
as §1, §2, §3

The test system of the next data set is HT-29 colon cancer cells. The data set can be described thus: Sulforhodamine B cell growth inhibition assay. It counts as cell-based. Particulars: Homo sapiens, HT-29, 120 h; 5 days, SRB; read-out: Colon GI50 range HT29. Here is the method: as §1, §2, §3
The test system of data set [5] is OVCAR-3 ovarian cancer cells. The data set can be described thus: Sulforhodamine B cell growth inhibition assay. The conditions noted are these: Homo sapiens, OVCAR-3, 120 h; 5 days, SRB; read-out: Ovarian GI50 range OVCAR-3. It counts as cell-based. Here is the method: as §1, §2, §3
The next data set deals with human RIPK2 kinase (Homo sapiens (Human), UniProt O43353). The data set can be described thus: RIPK2 inhibition assay (indirect ELISA). The conditions noted are these: His-RIPK2 0.6 nM, 6 μM ATP; read-out: RIPK2 IC50 range. It counts as biochemical. Here is the method:
Active RIPK2 was purchased from Life Technologies as His-tagged of catalityc domain (amin acids 1-299) of human RIPK2 kinase expressed in insect cells. Amino terminal 6 histidine, sumo tagged human TTK (residues 1-275) was expressed in E. coli, and purified to >95% homogeneity by Ni^2+ agarose, gel filtration, and ion exchange chromatography.
RIPK2 activity was measured using an indirect ELISA detection system. His—RIPK2 (0.6 nM) was incubated in the presence of 6 μM ATP (Sigma cat # A7699), 20 mM Hepes, pH 7.5, 1 mM EGTA, 2.5 mM MgCl2, 2.5 mM MnCl2 and 0.01% Triton X-100 in a 96 well microtitre plate pre-coated with amino terminal 6 histidine, sumo tagged TTK (amino acid residues 1-275). The reaction was allowed to proceed for 30 minutes, followed by 5 washes of the plate with Wash Buffer (phosphate buffered saline supplemented with 0.2% Tween 20), and incubation for 30 minutes with a 1:3000 dilution of primary antibody (Cell Signaling cat #9381). The plate was washed 5 times with Wash Buffer, incubated for 30 minutes in the presence of secondary antibody coupled to horse radish peroxidase (BioRad cat #1721019, 1:3000 concentration), washed an additional 5 times with Wash Buffer, and incubated in the presence of TMB substrate (Sigma cat # T0440). The colorimetric reaction was allowed to continue for 5 minutes, followed by addition of stop solution (0.5 N H2SO4), and quantified by detection at 450 nm with either a monoChromatic or filter based plate reader (Molecular Devices M5 or Beckman DTX880, respectively).
Compound inhibition was determined at either a fixed concentration (10 μM) or at a variable inhibitor concentration (typically 50 μM to 0.1 μM in a 10 point dose response titration). Compounds were pre-incubated in the presence of enzyme for 15 minutes prior to addition of ATP and the activity remaining quantified using the above described activity assay. The % Inhibition of a compound was determined using the following formula; % Inhibition=100×(1−(experimental value−background value)/(high activity control−background value)). The IC50 value was determined using a non-linear 4 point logistic curve fit (XLfit4, IDBS) with the formula; (A+(B/(1+((x/C)^D)))), where A=background value, B=range, C=inflection point, D=curve fit parameter.

Data set [6] relates to mouse bone marrow dendritic cells. Description: Dendritic cell viability by 7AAD exclusion. It counts as cell-based. The conditions noted are these: stimulated 24 hours with LPS or Pam3Cys ± 1 μg/ml MDP. The method, then: (§4) IL-12-yellow fluorescent protein (YFP) reporter mouse bone marrow dendritic cells were stimulated for 24 hours with 0.3 ng/ml LPS±1 μg/ml MDP (i.e., NOD2 agonist) in the presence of Example A3 (FIG. 2A). IL-12-yellow fluorescent protein (YFP) reporter mouse bone marrow dendritic cells were stimulated for 24 hours with 0.3 μg/ml Pam3Cys±1 μg/ml MDP (i.e., NOD2 agonist) in the presence of Example A3 (FIG. 2B). […] Data are represented as the mean±SEM of triplicate measurements. Levels of IL-12 p70 (FIG. 2C, left panel) and TNFα (FIG. 2C, right panel) in the cell culture supernatants from A were measured by ELISA techniques with commercially available kits. […] Data are represented as the mean±SEM of triplicate measurements.

In the next data set the test system is IL-12 p70. Description: IL-12 p70 in dendritic cell culture supernatants by ELISA. It counts as cell-based, mouse. The conditions noted are these: 0.3 ng/ml LPS ± 1 μg/ml MDP, 24 hours. The method, then: as §4
On the technique in general: An ELISA detects its analyte on a solid surface through an enzyme-linked reagent.

The subject of a further data set is TNFα. Description: TNFα in dendritic cell culture supernatants by ELISA. It counts as cell-based, mouse. The conditions noted are these: 0.3 ng/ml LPS ± 1 μg/ml MDP, 24 hours. Here is the method: as §4
Data set [7] has as its system IL-12-yellow fluorescent protein (YFP) reporter mouse bone marrow dendritic cells. The data set can be described thus: IL-12-YFP reporter dendritic cells, flow cytometric analysis. Particulars: stimulated 24 hours with LPS or Pam3Cys ± 1 μg/ml MDP. It counts as cell-based. Here is the method:
FIGS. 2(A)-(C) are graphs illustrating the effects of compound A3 on cytokine production by dendritic cells.
as §4

human RIPK2 kinase, sequence (O43353 1-299): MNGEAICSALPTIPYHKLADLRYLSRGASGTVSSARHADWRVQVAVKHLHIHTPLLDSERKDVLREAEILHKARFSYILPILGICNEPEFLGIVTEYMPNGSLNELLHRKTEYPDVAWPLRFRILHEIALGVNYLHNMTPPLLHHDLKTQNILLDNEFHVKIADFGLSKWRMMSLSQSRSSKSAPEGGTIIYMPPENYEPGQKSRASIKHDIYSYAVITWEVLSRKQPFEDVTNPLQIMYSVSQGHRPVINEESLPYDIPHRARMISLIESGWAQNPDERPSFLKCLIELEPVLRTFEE

One may read the GI50 as the concentration at which growth is held to half of that of the control. A word on the IC50: it is the concentration needed to halve the response being measured. On to `Cc1ccccc1-c1cc2nc(Nc3ccc(OC4CCN(C)CC4)cc3)ncc2[nH]1` [Example A2, N-(4-((1-methylpiperidin-4-yl)oxy)phenyl)-6-(o-tolyl)-5H-pyrrolo[3,2-d] pyrimidin-2-amine], for which the GI50 (in data set [1]; in data set [2]; in data set [3]; in data set [4]; with HT-29 colon cancer cells; in data set [5]) was 1 to 10 µM each time. In addition, the IC50 at human RIPK2 kinase was no more than 0.1 µM.
Turning to `Cc1ccccc1-c1cc2nc(Nc3cccc(N4CCOCC4)c3)ncc2[nH]1` [Example A3, N-(3-morpholinophenyl)-6-(o-tolyl)-5H-pyrrolo[3,2-d]pyrimidin-2-amine], the GI50 (in data set [1]; in data set [2]; in [3]; in [4]; in the data set on HT-29 colon cancer cells; in data set [5]) was no more than 1 µM each time. Also, the “cell viability as assessed by 7AAD exclusion” value in data set [6] is listed as “no measurable effect”. In addition, in the data set with IL-12 p70, the “levels of IL-12 p70 in cell culture supernatants” value was “dose-dependent reduction”. Further, in the data set with TNFα, the “levels of TNFα in cell culture supernatants” value is “dose-dependent reduction”. The “percentage of YFP positive cells (percentage of IL-12 positive cells)” value in data set [7] is “minimal effect”. In addition, the “mean fluorescence intensity YFP (amount of IL-12)” value in data set [7] (MDP-dependent) is recorded as “dose-dependent reduction”. Also, at human RIPK2 kinase, the IC50 is no more than 0.1 µM.
With `Cc1ccccc1-c1cc2nc(Nc3cccc(N4CCN(C)CC4)c3)ncc2[nH]1` [Example A4, N-(3-(4-methylpiperazin-1-yl)phenyl)-6-(o-tolyl)-5H-pyrrolo[3,2-d]pyrimidin-2-amine], the GI50 is no more than 1 µM in data set [1]; no more than 1 µM in [2]; no more than 1 µM in data set [3]; 1 to 10 µM in data set [4]; no more than 1 µM in the data set with HT-29 colon cancer cells; no more than 1 µM in [5]. Moreover, at human RIPK2 kinase, the half-maximal inhibitory concentration (IC50) was no more than 0.1 µM.
As to `Cc1cccc(C)c1-c1cc2nc(Nc3cccc(N4CCN(C)CC4)c3)ncc2[nH]1` [Example A6, 6-(2,6-dimethylphenyl)-N-(3-(4-methylpiperazin-1-yl)phenyl)-5H-pyrrolo[3,2-d]pyrimidin-2-amine], the GI50 in data set [1] was 1 to 10 µM; in data set [3] it was 1 to 10 µM; in data set [4] it was no more than 1 µM; in the data set with HT-29 colon cancer cells it was no more than 1 µM; in [5], no more than 1 µM. Also, at human RIPK2 kinase, the IC50 was no more than 0.1 µM.
Regarding `Cc1ccccc1-c1cc2nc(Nc3cccc(CN4CCOCC4)c3)ncc2[nH]1` [Example A7, N-(3-(morpholino-methyl)phenyl)-6-(o-tolyl)-5H-pyrrolo[3,2-d] pyrimidin-2-amine], the GI50 (in [1]; in data set [3]; in data set [4]; in the data set on HT-29 colon cancer cells; in data set [5]) was 1 to 10 µM each time. Moreover, at human RIPK2 kinase, the half-inhibitory concentration (IC50) was no more than 0.1 µM.
`Cc1ccccc1-c1cc2nc(Nc3ccc(N4CCOCC4)cc3)ncc2[nH]1` [Example A8, N-(4-morpholino-phenyl)-6-(o-tolyl)-5H-pyrrolo[3,2-d]pyrimidin-2-amine]: the 50% growth inhibitory concentration (GI50) (in data set [1]; in data set [3]; in data set [4]; in the data set on HT-29 colon cancer cells; in [5]) was greater than 10 µM throughout. Besides, the concentration for half-maximal inhibition (IC50) on human RIPK2 kinase was no more than 0.1 µM.
Turning to `Cc1ccccc1-c1cc2nc(Nc3cccc(CN4CCN(C)CC4)c3)ncc2[nH]1` [Example A9, N-(3-((4-methylpiperazin-1-yl)methyl)phenyl)-6-(o-tolyl)-5H-pyrrolo[3,2-d] pyrimidin-2-amine], the GI50 in [1] is greater than 10 µM; in [3] it was 1 to 10 µM; in data set [4], no more than 1 µM; with HT-29 colon cancer cells, no more than 1 µM; in [5], no more than 1 µM. In addition, at human RIPK2 kinase, the IC50 was no more than 0.1 µM.
In the case of `Cc1cccc(C)c1-c1cc2nc(Nc3cccc(N4CCOCC4)c3)ncc2[nH]1` [Example A12, 6-(2,6-dimethylphenyl)-N-(3-morpholinophenyl)-5H-pyrrolo[3,2-d]pyrimidin-2-amine], the GI50 in data set [1] is 1 to 10 µM; in data set [2] it was 1 to 10 µM; in data set [3], 1 to 10 µM; in data set [4], no more than 1 µM; with HT-29 colon cancer cells it was 1 to 10 µM; in [5], no more than 1 µM. Further, the concentration for half-maximal inhibition (IC50) at human RIPK2 kinase is no more than 0.1 µM.
Regarding `Fc1ccccc1-c1cc2nc(Nc3cccc(N4CCOCC4)c3)ncc2[nH]1` [Example A13, 6-(2-fluorophenyl)-N-(3-morpholino-phenyl)-5H-pyrrolo[3,2-d]pyrimidin-2-amine], the GI50 (in data set [1]; in [2]; in data set [3]; in data set [4]; in the data set on HT-29 colon cancer cells; in data set [5]) was no more than 1 µM in each case. Besides, on human RIPK2 kinase, the IC50 fell in the range of 0.1 to 0.5 µM.
Turning to `Cc1ccccc1-c1cc2nc(NCC3(N4CCOCC4)CCCC3)ncc2[nH]1` [Example A26, N-((1-morpholino-cyclopentyl)methyl)-6-(o-tolyl)-5H-pyrrolo[3,2-d]pyrimidin-2-amine], the IC50 on human RIPK2 kinase was greater than 0.5 µM.
